Measurements published in BindingDB's records for patent US11306098 (Venenum Biodesign, 2022).

Columns and labels:
[1] = target: T1, Three-prime repair exonuclease 1 (Homo sapiens, UniProt Q9NSU2); experiment: Exonuclease Assay
T1 sequence (Q9NSU2 whole entry): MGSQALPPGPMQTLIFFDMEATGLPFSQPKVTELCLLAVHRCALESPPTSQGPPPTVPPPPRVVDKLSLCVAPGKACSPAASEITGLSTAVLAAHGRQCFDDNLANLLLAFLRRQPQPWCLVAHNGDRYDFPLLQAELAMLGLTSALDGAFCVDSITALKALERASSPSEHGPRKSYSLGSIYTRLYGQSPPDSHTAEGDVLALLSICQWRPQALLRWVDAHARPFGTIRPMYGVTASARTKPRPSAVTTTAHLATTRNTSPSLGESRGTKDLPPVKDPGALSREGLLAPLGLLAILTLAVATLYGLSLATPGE
Method: To evaluate the effect of compounds on TREX1 activity, test compounds were serially diluted (11-point, 3-fold) from 10 mM stock solutions and delivered to 384-well low-volume assay plates in 80 nL DMSO using an acoustic dispenser. Next, 4 μL of human TREX1 (0.5 nM), or murine TREX1 (1 nM), diluted in assay buffer (20 mM Tris pH 7.5, 5 mM MgCl2, 100 μg/mL BSA, 0.002% Triton X-100, 2 mM DTT), was added to the assay plate. After incubating for 30 minutes, 4 μL of labeled DNA oligonucleotide (500 nM) in assay buffer was added to initiate TREX1 exonuclease activity. The reaction was allowed to proceed for 45 minutes at room temperature prior to the addition of 4 μL of 150 mM EDTA to halt TREX1 activity. Assay plates were equilibrated for an additional 30 minutes and read on an EnVision Plate Reader (Perkin Elmer) to measure fluorescence emission at 535 nm following excitation at 485 nm. Fluorescence was plotted as a function of log molar compound concentration and fit to four-parameter dose-response equation to determine compound IC50.

[2] = target: T2, Three-prime repair exonuclease 1 (Mus musculus, UniProt Q91XB0)
T2 sequence (Q91XB0 whole entry): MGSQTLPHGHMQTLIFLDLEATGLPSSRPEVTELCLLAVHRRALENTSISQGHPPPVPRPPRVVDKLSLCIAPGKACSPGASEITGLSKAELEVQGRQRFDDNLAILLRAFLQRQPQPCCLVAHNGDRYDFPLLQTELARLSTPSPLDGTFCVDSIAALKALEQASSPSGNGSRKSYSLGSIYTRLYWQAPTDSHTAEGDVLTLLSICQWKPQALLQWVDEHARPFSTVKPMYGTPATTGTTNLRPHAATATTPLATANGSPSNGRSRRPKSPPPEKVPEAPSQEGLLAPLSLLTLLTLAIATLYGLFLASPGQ

SMILES | IC50 [1] [nM] | IC50 [2] [nM]
CC(C)C[C@H](C(=O)NCc1ccc(Cl)c(Cl)c1)N1CCC(CCc2ccccc2)N2C[C@H](N)C[C@H]2C1=O (some centres undefined) [US11306098, Example 1] | < 1000 | < 1000
N[C@@H]1C[C@H]2C(=O)N([C@H](CO)C(=O)NCc3ccc(Cl)c(Cl)c3)CCC(CCc3ccccc3)N2C1 (some centres undefined) [US11306098, Example 3] | < 1000 | < 1000
